Here are results for 19 molecules from patent US20240287076A1, “COMPOUNDS FOR TARGETING DEGRADATION OF BRUTON'S TYROSINE KINASE” (BIOGEN MA INC., priority 2021, published 2024).

For this experiment, the target named is T1, BTK (Homo sapiens, UniProt Q06187).
T1 construct: The GM01501.3 cell line endogenously expresses BTK with a HiBiT fusion tag via CRISPR knock-in at its C-terminal region; endogenous in cells; host or cells: GM01501.3 (GM01501 cells engineered by CRISPR knock-in of HiBiT at the BTK locus)
T1 sequence (Q06187 whole entry, the tested form may be a part): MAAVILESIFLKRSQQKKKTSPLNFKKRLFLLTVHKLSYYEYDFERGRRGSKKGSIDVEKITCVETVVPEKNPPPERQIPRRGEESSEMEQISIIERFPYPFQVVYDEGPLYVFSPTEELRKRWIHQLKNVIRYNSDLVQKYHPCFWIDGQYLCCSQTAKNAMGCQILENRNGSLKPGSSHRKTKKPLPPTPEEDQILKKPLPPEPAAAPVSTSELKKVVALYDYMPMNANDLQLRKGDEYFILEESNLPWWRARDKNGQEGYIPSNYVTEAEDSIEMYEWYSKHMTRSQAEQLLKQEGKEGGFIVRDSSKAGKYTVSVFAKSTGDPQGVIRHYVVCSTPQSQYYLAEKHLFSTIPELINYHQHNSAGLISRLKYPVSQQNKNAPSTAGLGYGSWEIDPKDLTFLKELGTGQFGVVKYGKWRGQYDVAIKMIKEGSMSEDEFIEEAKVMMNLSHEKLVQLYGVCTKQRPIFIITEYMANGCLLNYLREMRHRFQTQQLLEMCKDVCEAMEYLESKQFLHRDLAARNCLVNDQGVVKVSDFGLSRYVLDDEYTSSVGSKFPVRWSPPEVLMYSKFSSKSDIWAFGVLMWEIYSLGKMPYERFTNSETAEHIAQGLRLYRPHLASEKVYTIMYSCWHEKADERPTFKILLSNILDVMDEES
As to the kind of experiment: BTK degradation assay using the HiBiT Method (Nano-Glo HiBiT Lytic Assay, GM01501.3 cells). The conditions noted are these: HiBiT Degradation on GM01501.3 BTK @ 6 hours. It counts as cell-based. In short, it runs like this:
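Degradation read-out: HiBiT luminescence after lytic reagent addition, giving DC50. Compounds dosed from 10 μM in 11 half-log steps (duplicate) onto GM01501.3 cells, whose endogenous BTK carries a C-terminal HiBiT knock-in tag; 6 h exposure, 37 °C, 5% CO2.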
Background: The HiBiT peptide binds its large partner to form an active luciferase.

One may read the DC50 as the concentration giving 50% degradation. A high value points to degradation only at high concentration. As for `Cc1c(NC(=O)c2ccc(C(C)(C)O)cc2)cc(F)cc1-c1ncnn2cc(-c3ccc(CN4CCC(c5ccc(NC6CCC(=O)NC6=O)cc5)CC4)cc3)cc12` (stereo not shown) [Example 153, N-[3-[6-[4-[[4-[4-[(2,6-dioxo-3-piperidyl)amino]phenyl]-1-piperidyl]methyl]phenyl]pyrrolo[2,1-f][1,2,4]triazin-4-yl]-5-fluoro-2-methyl-phenyl]-4-(1-hydroxy-1-methyl-ethyl)benzamide], the DC50 is less than 100 nM. In the case of `Cc1c(NC(=O)c2cc3c(s2)CCCC3)cc(F)cc1-c1ncnn2cc(-c3ccc(CN4CCC(c5ccc(NC6CCC(=O)NC6=O)cc5)CC4)cc3)cc12` (stereo not shown) [Example 152, N-(3-(6-(4-((4-(4-((2,6-dioxopiperidin-3-yl)amino)phenyl)piperidin-1-yl)methyl)phenyl)pyrrolo[2,1-f][1,2,4]triazin-4-yl)-5-fluoro-2-methylphenyl)-4,5,6,7-tetrahydrobenzo[b]thiophene-2-carboxamide] it was less than 100 nM; in that of `Cn1nc(N2CCC(=O)NC2=O)c2ccc(C3CCN(Cc4ccc(-c5cc6c(-c7ccc(CNC(=O)c8noc(C(C)(C)C)n8)c(F)c7)ncnn6c5)cc4F)CC3)cc21` [Example 33, 5-tert-butyl-N-[[4-[6-[4-[[4-[3-(2,4-dioxohexahydropyrimidin-1-yl)-1-methyl-indazol-6-yl]-1-piperidyl]methyl]-3-fluoro-phenyl]pyrrolo[2,1-f][1,2,4]triazin-4-yl]-2-fluoro-phenyl]methyl]-1,2,4-oxadiazole-3-carboxamide], less than 100 nM; in that of `Cc1cc(-c2ncnn3cc(-c4ccc(CN5CCC(c6ccc(NC7CCC(=O)NC7=O)cc6)CC5(C)C)cc4)cc23)ccc1CNC(=O)c1noc(C(C)(C)C)n1` (stereo not shown) [Example 5, 5-tert-butyl-N-[[4-[6-[4-[[4-[4-[(2,6-dioxo-3-piperidyl)amino]phenyl]-2,2-dimethyl-1-piperidyl]methyl]phenyl]pyrrolo[2,1-f][1,2,4]triazin-4-yl]-2-methyl-phenyl]methyl]-1,2,4-oxadiazole-3-carboxamide], less than 100 nM. In the case of `Cc1cc(-c2ccnc3[nH]c(-c4ccc(CN5CCC(c6ccc(NC7CCC(=O)NC7=O)cc6)CC5)cc4)cc23)ccc1CNC(=O)c1noc(C(C)(C)C)n1` (stereo not shown) [Example 161, 5-tert-butyl-N-[[4-[2-[4-[[4-[4-[(2,6-dioxo-3-piperidyl)amino]phenyl]-1-piperidyl]methyl]phenyl]-1H-pyrrolo[2,3-b]pyridin-4-yl]-2-methyl-phenyl]methyl]-1,2,4-oxadiazole-3-carboxamide] it was less than 100 nM; in that of `CC(C)(C)c1nc(C(=O)NCc2ccc(-c3ncnn4cc(CCCCN5CCC(c6ccc(NC7CCC(=O)NC7=O)nc6)CC5)cc34)cc2F)no1` (stereo not shown) [Example 138, 5-tert-butyl-N-[[4-[6-[4-[4-[6-[(2,6-dioxo-3-piperidyl)amino]-3-pyridyl]-1-piperidyl]butyl]pyrrolo[2,1-f][1,2,4]triazin-4-yl]-2-fluoro-phenyl]methyl]-1,2,4-oxadiazole-3-carboxamide], less than 100 nM; in that of `Cc1cc(-c2ncnn3cc(CCN4CCC(c5ccc6c(N7CCC(=O)NC7=O)nn(C)c6c5)CC4)cc23)ccc1CNC(=O)c1cnn(C(C)(C)C)c1` [Example 258, 1-(tert-butyl)-N-(4-(6-(2-(4-(3-(2,4-dioxotetrahydropyrimidin-1(2H)-yl)-1-methyl-1H-indazol-6-yl)piperidin-1-yl)ethyl)pyrrolo[2,1-f][1,2,4]triazin-4-yl)-2-methylbenzyl)-1H-pyrazole-4-carboxamide], less than 100 nM. In the case of `Cc1cc(-c2ncnn3cc(CCCCN4CCC(c5ccc6c(N7CCC(=O)NC7=O)nn(C)c6c5F)CC4)cc23)ccc1CNC(=O)c1noc(C(C)(C)C)n1` [Example 278, 5-(tert-butyl)-N-(4-(6-(4-(4-(3-(2,4-dioxotetrahydropyrimidin-1(2H)-yl)-7-fluoro-1-methyl-1H-indazol-6-yl)piperidin-1-yl)butyl)pyrrolo[2,1-f][1,2,4]triazin-4-yl)-2-methylbenzyl)-1,2,4-oxadiazole-3-carboxamide] it was less than 100 nM. For `Cc1cc(-c2ncnn3cc(CCN4CCC(c5cc6c(cc5F)c(N5CCC(=O)NC5=O)nn6C)CC4)cc23)ccc1CNC(=O)c1noc(C(C)(C)C)n1` [Example 256, 5-(tert-butyl)-N-(4-(6-(2-(4-(3-(2,4-dioxotetrahydropyrimidin-1(2H)-yl)-5-fluoro-1-methyl-1H-indazol-6-yl)piperidin-1-yl)ethyl)pyrrolo[2,1-f][1,2,4]triazin-4-yl)-2-methylbenzyl)-1,2,4-oxadiazole-3-carboxamide], the DC50 is less than 100 nM. Take `Cc1cc(-c2ncnn3cc(-c4ccc(CN5CCC(c6ccc(NC7CCC(=O)NC7=O)cc6)CC5)cc4)cc23)ccc1CNC(=O)c1ccc(C(F)F)cc1` (stereo not shown) [Example 61, 4-(difluoromethyl)-N-[[4-[6-[4-[[4-[4-[(2,6-dioxo-3-piperidyl)amino]phenyl]-1-piperidyl]methyl]phenyl]pyrrolo[2,1-f][1,2,4]triazin-4-yl]-2-methyl-phenyl]methyl]benzamide]: the DC50 was less than 100 nM. In the case of `Cc1cc(-c2ncnn3cc(-c4cccc(C(C)CN5CCC(c6ccc(C7CCC(=O)NC7=O)cc6)CC5)c4)cc23)ccc1CNC(=O)c1noc(C(C)(C)C)n1` (stereo not shown) [Example 207, 5-(tert-butyl)-N-(4-(6-(3-(1-(4-(4-(2,6-dioxopiperidin-3-yl)phenyl)piperidin-1-yl)propan-2-yl)phenyl)pyrrolo[2,1-f][1,2,4]triazin-4-yl)-2-methylbenzyl)-1,2,4-oxadiazole-3-carboxamide] it was less than 100 nM; in that of `CC(C)(C)c1nc(C(=O)NCc2ccc(-c3ncnn4cc(CCN5CCC(c6ccc(NC7CCC(=O)NC7=O)cc6)CC5)cc34)cc2F)no1` (stereo not shown) [Example 120, 5-tert-butyl-N-[[4-[6-[2-[4-[4-[(2,6-dioxo-3-piperidyl)amino]phenyl]-1-piperidyl]ethyl]pyrrolo[2,1-f][1,2,4]triazin-4-yl]-2-fluoro-phenyl]methyl]-1,2,4-oxadiazole-3-carboxamide], less than 100 nM. On to `Cn1nc(N2CCC(=O)NC2=O)c2ccc(C3CCN(Cc4ccc(-c5cc6c(-c7ccc(CNC(=O)c8noc(C(C)(C)C)n8)c(F)c7)ncnn6c5)nc4)CC3)cc21` [Example 243, 5-(tert-butyl)-N-(4-(6-(5-((4-(3-(2,4-dioxotetrahydropyrimidin-1(2H)-yl)-1-methyl-1H-indazol-6-yl)piperidin-1-yl)methyl)pyridin-2-yl)pyrrolo[2,1-f] [1,2,4]triazin-4-yl)-2-fluorobenzyl)-1,2,4-oxadiazole-3-carboxamide], for which the DC50 is less than 100 nM. In the case of `CC(C)(C)OC1CN(C(=O)NCc2ccc(-c3ncnn4cc(-c5ccc(CN6CCC(c7ccc(NC8CCC(=O)NC8=O)cc7)CC6)cc5)cc34)cc2F)C1` (stereo not shown) [Example 99, 3-tert-butoxy-N-[[4-[6-[4-[[4-[4-[(2,6-dioxo-3-piperidyl)amino]phenyl]-1-piperidyl]methyl]phenyl]pyrrolo[2,1-f][1,2,4]triazin-4-yl]-2-fluoro-phenyl]methyl]azetidine-1-carboxamide] it was less than 100 nM; in that of `Cc1cc(-c2ncnn3cc(CCCCN4CCN(c5ccc(C6CCC(=O)NC6=O)cn5)CC4)cc23)ccc1CNC(=O)c1noc(C(C)(C)C)n1` (stereo not shown) [Example 279, 5-(tert-butyl)-N-(4-(6-(4-(4-(5-(2,6-dioxopiperidin-3-yl)pyridin-2-yl)piperazin-1-yl)butyl)pyrrolo[2,1-f][1,2,4]triazin-4-yl)-2-methylbenzyl)-1,2,4-oxadiazole-3-carboxamide], less than 100 nM. To `Cc1cc(-c2ncnn3cc(-c4ccc(CN5CCC(c6ccc(NC7CCC(=O)NC7=O)cc6)CC5)cc4)cc23)ccc1CNC(=O)c1cc(C(C)(C)C)on1` (stereo not shown) [Example 83, -tert-butyl-N-[[4-[6-[4-[[4-[4-[(2,6-dioxo-3-piperidyl)amino]phenyl]-1-piperidyl]methyl]phenyl]pyrrolo[2,1-f][1,2,4]triazin-4-yl]-2-methyl-phenyl]methyl]isoxazole-3-carboxamide] belongs less than 100 nM. In the case of `Cc1cc(-c2ncnn3cc(OCCCN4CCC(c5ccc6c(N7CCC(=O)NC7=O)nn(C)c6c5)CC4)cc23)ccc1CNC(=O)N1CC(OC(C)(C)C)C1` [Example 293, 3-(tert-butoxy)-N-(4-(6-(3-(4-(3-(2,4-dioxotetrahydropyrimidin-1(2H)-yl)-1-methyl-1H-indazol-6-yl)piperidin-1-yl)propoxy)pyrrolo[2,1-f][1,2,4]triazin-4-yl)-2-methylbenzyl)azetidine-1-carboxamide], the DC50 is less than 100 nM. In the case of `Cc1cc(-c2ncnn3cc(-c4ccc(CN5CCC(c6ccc7c(N8CCC(=O)NC8=O)nn(C)c7c6)CC5)c(F)c4)cc23)ccc1CNC(=O)c1noc(C(C)(C)C)n1` [Example 245, 5-(tert-butyl)-N-(4-(6-(4-((4-(3-(2,4-dioxotetrahydropyrimidin-1(^2H)-yl)-1-methyl-1H-indazol-6-yl)piperidin-1-yl)methyl)-3-fluorophenyl)pyrrolo[2,1-f][1,2,4]triazin-4-yl)-2-methylbenzyl)-1,2,4-oxadiazole-3-carboxamide] it was less than 100 nM; in that of `Cc1cc(-c2ncnn3cc(-c4ccc(CN5CCC(c6cnc(NC7CCC(=O)NC7=O)cn6)CC5)cc4)cc23)ccc1CNC(=O)c1noc(C(C)(C)C)n1` (stereo not shown) [Example 12, 5-tert-butyl-N-[[4-[6-[4-[[4-[5-[(2,6-dioxo-3-piperidyl)amino]pyrazin-2-yl]-1-piperidyl]methyl]phenyl]pyrrolo[2,1-f][1,2,4]triazin-4-yl]-2-methyl-phenyl]methyl]-1,2,4-oxadiazole-3-carboxamide], less than 100 nM.
